Test results reported in patent publication US8163771B2, “11 β-HSD1 modulators” (Exelixis, Inc., priority 2008, dated 2012).

Target: T1, recombinant human 11 β-HSD1 (Homo sapiens, UniProt P28845)
T1 construct: made in house; host or cells: E. coli
Assay: 11 β-HSD1 SPA Assay (Scintillation Proximity Assay)
Type: biochemical
How it was run: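 E. coli-expressed human enzyme (30-100 nM) with tritiated cortisone 40 nM and NADPH 1 mM in HEPES buffer pH7.4, 2 hours at room temperature. Stopped with protein A SPA beads carrying anti-cortisol antibody and glycyrrhetinic acid; counted after overnight incubation. IC50 from percent inhibition between no-enzyme and no-compound signals.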

T1 sequence (P28845 whole entry): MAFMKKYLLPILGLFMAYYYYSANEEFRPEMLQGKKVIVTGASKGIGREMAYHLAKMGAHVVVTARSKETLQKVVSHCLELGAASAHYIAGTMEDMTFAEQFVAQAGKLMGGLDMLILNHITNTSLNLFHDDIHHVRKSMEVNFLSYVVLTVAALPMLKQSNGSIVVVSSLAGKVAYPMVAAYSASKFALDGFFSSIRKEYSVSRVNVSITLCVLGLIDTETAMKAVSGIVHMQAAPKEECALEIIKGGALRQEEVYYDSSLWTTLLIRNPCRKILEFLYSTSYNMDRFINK

| SMILES | IC50 [µM] |
| --- | --- |
| CC(C)(Oc1ccc(Cl)cn1)C(=O)N[C@H]1C[C@H]2CC[C@@H](C1)N2c1ccc(C(=O)NCC(F)(F)F)cn1 [Example 108, 6-[3-endo-({2-[(5-chloropyridin-2-yl)oxy]-2-methylpropanoyl}amino)-8-azabicycio[3.2.1]oct-8-yl]-N-(2,2,2-trifluoroethyl)pyridine-3-carboxamide] | < 0.2 |
| CC(C)(Oc1ccc(F)cn1)C(=O)N[C@H]1C[C@H]2CC[C@@H](C1)N2c1ccc(C(=O)NCC(F)(F)F)cn1 [Example 109, 6-[3-endo-({2-[(5-fluoropyridin-2-yl)oxy]-2-methylpropanoyl}amino)-8-azabicyclo[3.2.1]oct-8-yl]-N-(2,2,2-trifluoroethyl)pyridine-3-carboxamide] | < 0.2 |
| CC(C)(Oc1ccc(Cl)cc1Cl)C(=O)N[C@H]1C[C@H]2CC[C@@H](C1)N2c1ccc(C(=O)NCC(F)(F)F)cc1 [Example 110, 4-[3-endo-({2-[(2,4-dichlorophenyl)oxy]-2-methylpropanoyl}amino)-8-azabicyclo[3.2.1]oct-8-yl]-N-(2,2,2-trifluoroethyl)benzamide] | < 0.2 |
| CC(C)(Oc1ccc(C(F)(F)F)cc1)C(=O)N[C@H]1C[C@H]2CC[C@@H](C1)N2c1ccc(C(=O)NCC(F)(F)F)cn1 [Example 111, 6-{3-endo-[(2-methyl-2-{[4-(trifluoromethyl)phenyl]oxy}propanoyl)amino]-8-azabicyclo[3.2.1]oct-8-yl}-N-(2,2,2-trifluoroethyl)pyridine-3-carboxamide] | < 0.2 |
| CC(C)(Oc1ccccc1C(F)(F)F)C(=O)N[C@H]1C[C@H]2CC[C@@H](C1)N2c1ccc(C(=O)NCC(F)(F)F)cn1 [Example 112, 6-{3-endo-[(2-methyl-2-{[2-(trifluoromethyl)phenyl]oxy}propanoyl)amino]-8-azabicyclo[3.2.1]oct-8-yl}-N-(2,2,2-trifluoroethyl)pyridine-3-carboxamide] | < 0.2 |
| CC(C)(Oc1ccccc1C(F)(F)F)C(=O)N[C@H]1C[C@H]2CC[C@@H](C1)N2c1ccc(C(=O)NC2CC2)cn1 [Example 113, N-cyclopropyl-6-{3-endo-[(2-methyl-2-{[2-(trifluoromethyl)phenyl]oxy}propanoyl)amino]-8-azabicyclo[3.2.1]oct-8-yl}pyridine-3-carboxamide] | < 0.2 |
| CC(C)(Oc1ccc(Cl)cc1Cl)C(=O)N[C@H]1C[C@H]2CC[C@@H](C1)N2c1ccc(-c2nnn[nH]2)cn1 [Example 114, 2-[(2,4-dichlorophenyl)oxy]-2-methyl-N-{8-[5-(1H-tetrazol-5-yl)pyridin-2-yl]-8-azabicyclo[3.2.1]oct-3-endo-yl}propanamide] | < 0.2 |
| CC(=O)Nc1ccc(N2[C@@H]3CC[C@H]2C[C@@H](NC(=O)C(C)(C)Oc2ccc(Cl)cc2Cl)C3)cc1 [Example 115, N-{8-[4-(acetylamino)phenyl]-8-azabicyclo[3.2.1]oct-3-endo-yl}-2-[(2,4-dichlorophenyl)oxy]-2-methylpropanamide] | < 0.2 |
| CC(C)(Oc1ccc(Cl)cc1Cl)C(=O)N[C@H]1C[C@H]2CC[C@@H](C1)N2c1ccc(NC(=O)C(F)(F)F)cc1 [Example 116, 2-[(2,4-dichlorophenyl)oxy]-2-methyl-N-(8-{4-[(trifluoroacetyl)amino]phenyl}-8-azabicyclo[3.2.1]oct-3-endo-yl)propanamide] | < 0.2 |
| CC(C)(Oc1ccc(Cl)cc1Cl)C(=O)N[C@H]1C[C@H]2CC[C@@H](C1)N2c1ccc(C(=O)NCC(F)(F)F)cc1Cl [Example 117, 3-chloro-4-[3-endo-({2-[(2,4-dichlorophenyl)oxy]-2-methylpropanoyl}amino)-8-azabicyclo[3.2.1]oct-8-yl]-N-(2,2,2-trifluoroethyl)benzamide] | < 0.2 |
| O=C(NC1CC1)c1ccc(N2[C@@H]3CC[C@H]2C[C@@H](NC(=O)C2(c4ccc(Cl)cc4)CC2)C3)c(Cl)c1 [Example 118, 3-chloro-4-[3-endo-({[1-(4-chlorophenyl)cyclopropyl]carbonyl}amino)-8-azabicyclo[3.2.1]oct-8-yl]-N-cyclopropylbenzamide] | < 0.2 |
| O=C(NC1CC1)c1ccc(N2[C@@H]3CC[C@H]2C[C@@H](NC(=O)C2(c4ccc(Cl)cc4)CC2)C3)cc1F [Example 119, 4-[3-endo-({[1-(4-chlorophenyl)cyclopropyl]carbonyl}amino)-8-azabicyclo[3.2.1]oct-8-yl]-N-cyclopropyl-2-fluorobenzamide] | < 0.2 |
| CC(C)(Oc1ccc(Cl)cc1Cl)C(=O)N[C@H]1C[C@H]2CC[C@@H](C1)N2c1ccc(S(C)(=O)=O)cc1 [Example 120, 2-[(2,4-dichlorophenyl)oxy]-2-methyl-N-{8-[4-(methylsulfonyl)phenyl]-8-azabicyclo[3.2.1]oct-3-endo-yl}propanamide] | < 0.2 |
| O=C(NCC(F)(F)F)c1ccc(N2[C@@H]3CC[C@H]2C[C@@H](NC(=O)C2(c4ccc(F)c(F)c4)CC2)C3)nc1 [Example 121, 6-[3-endo-({[1-(3,4-difluorophenyl)cyclopropyl]carbonyl}amino)-8-azabicyclo[3.2.1]oct-8-yl]-N-(2,2,2-trifluoroethyl)pyridine-3-carboxamide] | < 0.2 |
| O=C(NCC(F)(F)F)c1ccc(N2[C@@H]3CC[C@H]2C[C@@H](NC(=O)C2(c4cccc(Cl)c4)CC2)C3)nc1 [Example 122, 6-[3-endo-({[1-(3-chlorophenyl)cyclopropyl]carbonyl}amino)-8-azabicyclo[3.2.1]oct-8-yl]-N-(2,2,2-trifluoroethyl)pyridine-3-carboxamide] | < 0.2 |
| O=C(NCC(F)(F)F)c1ccc(N2[C@@H]3CC[C@H]2C[C@@H](NC(=O)C2(c4cccc(F)c4)CC2)C3)nc1 [Example 123, 6-[3-endo-({[1-(3-fluorophenyl)cyclopropyl]carbonyl}amino)-8-azabicyclo[3.2.1]oct-8-yl]-N-(2,2,2-trifluoroethyl)pyridine-3-carboxamide] | < 0.2 |
| CC(C)(Oc1ncc(Cl)cc1Cl)C(=O)N[C@H]1C[C@H]2CC[C@@H](C1)N2c1ccc(C(N)=O)cn1 [Example 124, 6-[3-endo-({2-[(3,5-dichloropyridin-2-yl)oxy]-2-methylpropanoyl}amino)-8-azabicyclo[3.2.1]oct-8-yl]pyridine-3-carboxamide] | < 0.2 |
| CC(C)(Oc1ccc(Cl)cc1Cl)C(=O)N[C@H]1C[C@H]2CC[C@@H](C1)N2c1ccc(S(N)(=O)=O)cn1 [Example 125, N-{8-[5-(aminosulfonyl)pyridin-2-yl]-8-azabicyclo[3.2.1]oct-3-endo-yl}-2-[(2,4-dichlorophenyl)oxy]-2-methylpropanamide] | < 0.2 |
| CC(C)(Oc1ccc(Cl)cc1Cl)C(=O)N[C@H]1C[C@H]2CC[C@@H](C1)N2c1ccc(C(=O)NCC(F)(F)C(F)(F)F)cn1 [Example 126, 6-[3-endo-({2-[(2,4-dichlorophenyl)oxy]-2-methylpropanoyl}amino)-8-azabicyclo[3.2.1]oct-8-yl]-N-(2,2,3,3,3-pentafluoropropyl)pyridine-3-carboxamide] | < 0.2 |
| CC(C)(Oc1ncc(Cl)cc1F)C(=O)N[C@H]1C[C@H]2CC[C@@H](C1)N2c1ccc(C(=O)NCC(F)(F)F)cn1 [Example 127, 6-[3-endo-({2-[(5-chloro-3-fluoropyridin-2-yl)oxy]-2-methylpropanoyl}amino)-8-azabicyclo[3.2.1]oct-8-yl]-N-(2,2,2-trifluoroethyl)pyridine-3-carboxamide] | < 0.2 |
